Results taken from patent publication US9943592B2, “Vaccine adjuvants from self-assembling peptides” (priority 2011, dated 2018).
Square brackets hold non-standard residues; d marks the D form. Ends that are not written are not given here.

Columns and labels:
PRRSV [1] = experiment: dynamic viremia after vaccination in pigs; details: pig, in vivo
Method: (§1) A stock solution of h9e peptide (concentration 1.75% by weight in water) was prepared. For the active agent, 2X Ingelvac PRRS MLV (Boehringer Ingelheim Vetmedica, St. Joseph, Mo.) was used. The vaccine was rehydrated by adding half of the contents of the accompanying liquid diluent to the vial containing the virus. Medium was then prepared by adding 0.3 ml bovine serum to 7.2 ml MEM medium (ion source). Next, 5 ml of the peptide stock solution was added to the medium and mixed well. This was then mixed with the vaccine solution. The final concentration of h9e as adjuvant was 0.35% by weight, and the final concentration of serum was […] by weight.
(§2) Vaccines were also prepared using a commercially-available adjuvant, Montanide™ Gel 01 (aqueous polymeric gel veterinary adjuvant, Seppic Inc., Fairfield, N.J.), or a published peptide hydrogel, designated herein as A1/2 (SEQ ID NO:28, corresponding to the N-terminal region of mineral directing gelator (MDG) 1; Gungormus, et al., Biomaterials 31 (2010) 7266-7274).
(§3) 55 PRRSV serum negative pigs were initially divided into 5 vaccination groups and vaccinated on Day 0. […]
(§4) At Day 0, all pigs were weighed, and weight was monitored weekly and recorded on Days 7, 14, 21, and 28. […] Body temperature and clinical signs were monitored daily and recorded. […]

PRRSV [2] = experiment: dynamic viremia after challenge in pigs; type: in vivo; details: challenge with VR2332 or MN184a on day 28
Method: as §1, §2, §3, §4

PRRSV [3] = experiment: IDEXX ELISA Ab titer in pigs; type: in vivo
Method: as §1, §2, §3, §4

[4] = solubility, stability and morphology of peptide and hydrogel; type: physicochemical; details: for solubility of peptide in water: until pH adjusted to neutral or basic
[5] = rheology of peptide hydrogels (storage modulus G', amplitude sweep, temperature profile); type: physicochemical
Method: (§5) The synthesized peptide was dissolved in DI water to a concentration of 5 mM by adjusting the pH to 8.0-10.0 with 1 M NaOH (Sigma). The h5e acidic solution and acidic h9e hydrogel were made by adjusting the pH to 4.0 with 1 M HCl (Sigma). The h9e Ca^2+ hydrogel was prepared by adding CaCl2 to a basic h9e peptide solution (molar ratio of peptide and Ca^2+ was 1:10, final pH was 7.0 to 9.0). The same method was used to prepare the h5e Ca^2+ solution.
The storage, G′, and loss, G″, moduli of h9e acidic and Ca^2+ hydrogels were determined on a rheometer system C-VOR 150 (Malvern instruments, Malvern, Worcestershire WR141XZ, United Kingdom) with a 20-mm diameter parallel plate geometry through frequency sweep (strain 1%, frequency 0.01 to 10 Hz, temperature 25° C.), amplitude sweep (strain 1 to 500%, frequency 1 Hz, temperature 25° C.), and temperature profile (strain 1%, frequency 1 Hz, Temperature 5° C., 20° C., 37° C., 50° C., 75° C., and 90° C.) measurements. The multiple amplitude sweep experiments were conducted to test the moduli recovery of peptide hydrogels. The time gap between every two tests was 10, 30, and 60 seconds for h9e Ca^2+ hydrogel.

[6] = hydrogel formation of peptide solutions (ion or pH trigger); type: physicochemical; details: 0.005M peptide concentration
Method: as §5

A1/2: published peptide hydrogel, N-terminal region of mineral directing gelator (MDG) 1 (VKVKVKVKVPPTKVEVKVKV; Derivative of N-terminal region of mineral directing gelator (MDG) 1)
viremia after vaccination compared to the MLV group (PRRSV [1]): no difference
viremia after challenge (PRRSV [2]): not
ELISA Ab titer after vaccination, compared among groups (PRRSV [3]): lowest

FLIVIGPGGDGPGGD [h5e, FLIVIGPGGDGPGGD]
solubility of peptide in water [4]: insoluble in water

FLIVIGSIIGPGGDGPGGD [h9e, FLIVIGSIIGPGGDGPGGD]
temperature stability of hydrogel [4]: up to 90 °C
water solubility of hydrogel [4]: water soluble
solubility of peptide in water [4]: insoluble in water
general health / biological safety (immunized mice until sera collection): biologically safe
injection site reaction (redness or swelling) (vaccinated mice): No injection site reaction

FLIVIGSIIKKKKKKKKKK (Synthetic peptide adjuvant) [h9e variant with eD2 region replaced by K10]
G' of hydrogel in basic pH [5]: 55.0 ± 0.9 Pa

GPGGDGPGGD (Hydrophilic region derived from spider flagelliform silk protein) [eD2]
hydrogel formation in Ca^2+ solution [6]: not able to form hydrogels

L5GSIIK10: L5K10 diblock peptide with GSII inserted (LLLLLGSIIKKKKKKKKKK)
hydrogel formation in Ca^2+ solution [6]: no hydrogel formation was observed

L5PP^DK10: L5K10 diblock peptide with sharp turning segment PP^D inserted (LLLLLP[dP]KKKKKKKKKK)
hydrogel formation in Ca^2+ solution [6]: no hydrogel formation was observed

LLLLLKKKKKKKKKK (Synthetic diblock peptide) [L5K10]
hydrogel formation in Ca^2+ solution [6]: no hydrogel formation was observed
